Earlier results, collected in US20240285565A1, “USE OF (S)-3-AMINO-4-(DIFLUOROMETHYLENYL)CYCLOPENT-1-ENE-1-CARBOXYLIC ACID IN THE TREATMENT OF DIABETES AND PRE-DIABETES” (Ovid Therapeutics Inc., priority 2023, published 2024).

Columns and labels:
[1] = molecular target: aspartate aminotransferase (Asp-AT)
OAT = molecular target: T1, OAT (Homo sapiens, UniProt P04181)
T1 sequence (P04181 26-439): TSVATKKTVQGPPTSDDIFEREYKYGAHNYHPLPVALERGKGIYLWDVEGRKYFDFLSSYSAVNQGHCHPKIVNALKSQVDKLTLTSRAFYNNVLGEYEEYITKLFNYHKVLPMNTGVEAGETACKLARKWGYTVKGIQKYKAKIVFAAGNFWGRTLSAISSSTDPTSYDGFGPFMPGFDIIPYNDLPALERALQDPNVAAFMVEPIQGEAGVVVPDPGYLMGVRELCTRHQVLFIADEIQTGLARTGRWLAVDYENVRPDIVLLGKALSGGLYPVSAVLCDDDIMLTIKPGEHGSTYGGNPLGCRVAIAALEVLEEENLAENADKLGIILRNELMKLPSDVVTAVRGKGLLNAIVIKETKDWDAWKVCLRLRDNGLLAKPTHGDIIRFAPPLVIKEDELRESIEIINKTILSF

[2] = molecular target: alanine aminotransferase (Ala-AT)

For `N[C@H]1C=C(C(=O)O)CC1=C(F)F` [(S)-3-amino-4-(difluoromethylenyl)cyclopent-1-ene-1-carboxylic acid], the IC50 ([1]; reversible inhibition) is given as over 4 mM, the “Kinact/K1 (OAT)” value (OAT) is given as 7.6 mM⁻¹ min⁻¹ and the “times more efficient an inactivator of OAT than CPP-115” value (OAT; ratio of Kinact/K1 relative to CPP-115) is given as 9.0 times. The IC50 ([2]; reversible inhibition) was over 4 mM.

For `N[C@H]1C[C@@H](C(=O)O)CC1=C(F)F` [CPP-115, (1S,3S)-3-amino+difluoromethylenyl-1-cyclopentanoic acid, reference compound], the “inactivation or inhibition of Asp-AT” value ([1]; result in words) is given as “not to inactivate or inhibit”, the Ki (OAT; read-out: K1 (OAT)) is given as 116 µM and the “inactivation or inhibition of Ala-AT” value ([2]; result in words) is given as “not to inactivate or inhibit”.
